Assay results from publication PMC8845285, “Serotoninergic receptor ligands improve Tamoxifen effectiveness on breast cancer cells” (BMC Cancer, 2022).

Columns and labels:
Type in all cases: cell-based, human
MCF7-R cells = assay: Tamoxifen-resistant MCF7-R cell viability, sulforhodamine B assay; details: up to 6 μM, E2 100 nM, 72 h
Experimental: (§1) Cells were fixed with 50% trichloroacetic acid for at least 2 h at 4 °C, washed with distilled and de-ionized water, air-dryed and stained 30 min with 0.4% sulforhodamine B in 1% acetic acid. Unbound dye was removed and 10 mM tris-HCl solution (pH 7.5) was added to dissolve the protein-bound dye. Cell survival was assessed by optical density determination at 510 nm using a microplate reader.
MCF7 cells were cultured for 4 months in phenol-red free medium supplemented with 10% (C/S) FBS and continuously exposed to Tamoxifen (1 μM). […] To further validate the degree of drug resistance, the expression levels of ABCC1, ABCG1 and ABCG2 – members of ABC transporter family known as involved in multi-drug resistance – were evaluated by Quantitative Real-Time PCR (qPCR; see below) upon cell treatment with 5 μM Tamoxifen for 72 h.
Fig. 9 Effect of SER79 and SER68 on Tamoxifen-resistant (MCF7-R) cells. a Estrogen starved MCF7-R were treated with SER79 (20 μM, 5 μM) or SER68 (20 μM) in presence of E2 (100 nM). b Estrogen-starved MCF7-R were treated with Tamoxifen (5 μM) in presence of E2 and SER79 (20 μM) or SER68 (20 μM). a,b As positive control, the cells were treated with E2 alone, in absence or in presence of SER (dotted line). After 72 h, cell viability was assessed by sulforhodamine B assay (see Methods). The results were reported as percentage of viable cells compared to positive control, considered as maximum viability (100%). c mRNA levels of CTGF were determined by qPCR (see Methods and Table 1) in MCF7-R cells upon treatment with SER68 (20 μM). Data were normalized on Ribosomal Protein S23 (Rps23) gene as internal standard and reported as CTGF mRNA levels in MCF7-R. a-c Graphs represent the mean ± SD of at least three independent triplicate experiments. * denotes statistically significant values compared with (b) positive control or (c) MCF7 cells (*adjp<0.05; **adjp<0.001). # denotes statistically significant values compared with untreated MCF7-R (#pval<0.05) […]
Figure S3. Establishment of MCF7 Tamoxifen re sista n t(M C F7-R) cells. MCF7 cells were cultured with Tamoxifen (1µM), in absence of E2, for 4 months (M C F7-R). (a-b) MCF7 and MCF7-R cells were treated with in c re a s in gconcentration of Tamoxifen […]
As positive control, cells were treated with E2 alone. Cell viability was measured by sulforhodamine B assay (se e Methods). The re su ltswere re p o rte das percentage of viable cells compared to untreated cells, considered as maximum viability (100%). […]
(a ) * denotes statistically significant values compared with untreated cells […]
(§2) (1 picture or pasted object on this page, not shown here)

[1] = tested on: Tamoxifen-cultured MCF7 cells; assay: Tamoxifen-cultured MCF7 cell viability, sulforhodamine B assay; details: Tamoxifen 5 μM, E2 100 nM, 72 h
Experimental: as §1
To further investigate the effect of SER79 and SER68 on Tamoxifen responsiveness and CTGF expression in MCF7 cells, we obtained - by a continuous treatment of 10 days with 1 μM Tamoxifen – a cellular model less sensitive to the drug (Tamoxifen-cultured MCF7). We observed that 20 μM SER79, 20 μM and 40 μM SER68, while not 5 μM SER79, reduced viability of Tamoxifen-cultured MCF7 cells by about 40% (adjp<0.01; Fig. 8a). […] However, in the presence of 20 μM SER79, 20 μM and 40 μM SER68, Tamoxifen elicited a further 40% reduction of viability, similar to that achieved in Tamoxifen-responsive MCF7 cells (adjp<0.01; Fig. 8b).
Fig. 8 Effect of SER79 and SER68 on Tamoxifen-cultured MCF7 cells. MCF7 cells were cultured in presence of Tamoxifen (1 μM) for 10 days. Estrogen-starved MCF7 and Tamoxifen-cultured MCF7 cells (48 h) were (a-c) treated with SER79 (20 μM, 5 μM) or SER68 (40 μ, 20 μM), (b) treated with Tamoxifen (5 μM) in presence of SER79 (20 μM, 5 μM) or SER68 (40 μM, 20 μM). All treatments were carried out in presence of E2 (100 nM) for 72 h. As positive control, the cells were treated with (a-c) E2 alone or (b) E2 in absence or in presence of SER (as indicated, dotted line). a,b Cell viability was assessed by sulforhodamine B assay (see Methods). The results were reported as percentage of viable cells compared to positive control, considered as maximum viability (100%). c mRNA levels of CTGF were determined by qPCR (see Methods and Table 1). Data were normalized on Ribosomal Protein S23 (Rps23) gene as internal standard and reported as CTGF mRNA levels in Tamoxifen-cultured MCF7 relative to those in MCF7 cells (dotted line). a-c Graphs represent the mean ± SD of at least three independent triplicate experiments. * denotes statistically significant values compared with (a,b) positive control (*adjp<0.05, ** adjp<0.01) or (c) MCF7 cells (*pval<0.05); # denotes statistically significant values compared with (b) cells treated with Tamoxifen in absence of SER or (c) untreated Tamoxifen-cultured MCF7 cells (#pval<0.01, ##pval<0.0001)

ABCC1, ABCG1 and ABCG2 = assay: ABC transporter mRNA levels in MCF7-R cells, qPCR; details: Tamoxifen 5 μM, E2 100 nM, 72 h
Experimental: Total RNA was isolated from cells, quantified (NanoDrop spectrophotometer, Life Technologies, Carlsbad, CA, USA) and reverse transcribed according to the manufacturer’s instructions. Semiquantitative PCR and qPCR assays were performed according to manufacturer’s instructions for Bio-Rad T100 thermal cycler and CFX Connect Real Time system (Biorad, Hercules, CA, USA), respectively. Relative gene expression quantification was measured by 2^−ΔΔCt method normalizing for the reference sample using Rps23 (Ribosomal Protein S23) as housekeeping gene.
Cell viability was measured
as §2

Structure (SMILES): CC/C(=C(\c1ccccc1)c1ccc(OCCN(C)C)cc1)c1ccccc1 [Tamoxifen]
- effect of Tamoxifen on MCF7-R cell viability (MCF7-R cells): did not reduce
- effect of Tamoxifen treatment alone on viability of Tamoxifen-cultured MCF7 cells [1]: did not affect viability
- mRNA levels of ABCC1, ABCG1 and ABCG2 in Tamoxifen-treated MCF7-R cells (ABCC1, ABCG1 and ABCG2): higher
